Laboratory results from US8153633B2, “Phthalazine compounds, compositions and methods of use” (Amgen Inc., priority 2007, dated 2012).

What was measured:
[1] = tested on: Gli1 expression (Smoothened signaling); assay: Gli1 expression in mouse skin after depilation and oral compound dosing (quantitative PCR relative to RGS); format: in vivo; settings: five days after depilation, six hours after administration
Procedure: Paladini et al. (2005) J Invest Dermatol 125:638-646. For this work, the mice were deplilated using wax strips (Sally Hansen, Del Laboratories, Inc, Uniondale, N.Y.). Five days after depilation, mice were dosed orally with compound or vehicle. Six hours after compound administration, animals were euthanized and skin samples were collected. RNA was purified from the skin samples using a mirVana miRNA Isolation kit (Ambion, Austin, Tex.). cDNA was prepared from the RNA, and Gli1 expression levels were determined by real-time, quantitative PCR relative to the RGS reference gene.

[2] = tested on: medulloblastomas from Ptch+/−p53−/− mice; assay: Mouse medulloblastoma allograft model, antitumor activity in vivo; settings: 10 mg/kg, one dose per day, after 6 days of treatment; tumors of average size 200 mm^3 at start
Procedure: Briefly, medulloblastomas from Ptch+/−p53−/− mice were subcutaneously implanted into immunocompromised mice, and subsequent passages of these tumor allografts were used for compound testing. For compound studies, animals bearing tumors with an average size of 200 mm^3 were treated with vehicle or 10 mg/kg compound 23 on a schedule of one dose per day for a total of 6 days.

Row | SMILES | [Gli1/RGS ratio compound]/[Gli1/RGS ratio vehicle] ([1]; 100 mg/kg oral) | [Gli1/RGS ratio compound]/[Gli1/RGS ratio vehicle] ([1]; 50 mg/kg oral) | reduction in tumor size relative to vehicle control [2] [%]
1 | C[C@H]1CN(c2nnc(-c3ccccc3)c3ccccc23)CCN1C(=O)c1ccccc1 [Compound 5, (S)-(2-methyl-4-(4-phenylphthalazin-1-yl)piperazin-1-yl)(phenyl)-methanone] | 0.41 | – | –
2 | C[C@@H]1CN(C(=O)c2ccccc2)CCN1c1nnc(-c2ccc(C(F)(F)F)cc2)c2ccccc12 [Compound 23, (R)-(3-methyl-4-(4-(4-(trifluoromethyl)-phenyl)-phthalazin-1-yl)piperazin-1-yl)(phenyl)-methanone] | – | 0.33 | > 99
